Data on one compound can be found in US20120082736A1, “Small-molecule TNF modulator to reduce the side effects of chemotherapy and radiotherapy” (GeneBlue Corporation, priority 2010, published 2012).

Entries after “also recorded” stand apart in the source; their conditions may differ.

The test system of series [1] is BDF1 mice. In words: Add-on study: does UTL-5g increase platelet count by itself (Example 3). It is filed as in vivo. On the procedure:
Gp 1: medium (saline). Gp 2: saline followed by cisplatin (2.5 mg/kg) 30 min later. Gp 3: UTL-5g (15 mg/kg) followed by cisplatin 30 min later. Gp 4: UTL-5g (30 mg/kg) followed by cisplatin (2.5 mg/kg) 30 min later. Gp 5: UTL-5g (60 mg/kg) followed by cisplatin (2.5 mg/kg) 30 min later. Gp 6: amifostine (200 mg/kg) followed by cisplatin (2.5 mg/kg) 30 min later. Gp 7: saline followed by cisplatin (5 mg/kg) 30 min later. Gp 8: UTL-5g (60 mg/kg) followed by medium (saline) 30 min later. Gp 1-Gp 6 were daily ×5, but Gp 7 was by single dose on day 0 only. StDev is shown for each Gp (n=5 for each group except n=4 for Gp 7). * P<0.05, ** p<0.005 vs. medium control by Student's t-t (two-tailed).
To further investigate whether UTL-5g by itself would increase platelet count, the following small add-on study was conducted: • Gp 1: medium (saline) followed by medium (saline) 30 min later (same as Gp 1 before) • Gp 2: medium (saline) followed by cisplatin (2.5 mg/kg) 30 min later (same as Gp 2 before) • Gp 5: UTL-5g (60 mg/kg) followed by cisplatin (2.5 mg/kg) 30 min later (Same as Gp 5 before) • Gp 8: UTL-5g alone (60 mg/kg) followed by medium (saline) 30 min later (New Gp)

In series [2] the test system is human colon cancer cells (HCT-15). Description: Effect of UTL-5g pretreatment on antitumor effect of cisplatin, HCT-15 tumors in SCID mice (Example 4). It is filed as in vivo. Here is the method: FIG. 7. Effect of UTL-5g pre-treatment on the antitumor effect of cisplatin Group 1, saline, daily ×5 (control); Group 2, cisplatin (2.5 mg/kg) in saline, daily ×5; Group 3, UTL-5g (60 mg/kg) followed by cisplatin (2.5 mg/kg) 30 min later, daily ×5. […] Gp: Group
In order to qualify UTL-5g as a chemoprotective agent, a therapeutic assessment was conducted to evaluate the effect of UTL-5g on the efficacy of cisplatin. Briefly, 25 SCID mice were randomly divided into 5 groups as below. • Gp 1: Saline daily ×5 (control) • Gp 2: Cisplatin 0.2 mg/mL (2.5 mg/kg), daily ×5 • Gp 3: UTL-5g (60 mg/kg) followed by cisplatin (2.5 mg/kg) 30 min later, daily ×5 • Gp 4: Cisplatin 0.4 mg/mL ([…]) in saline, day 1 only • Gp 5: UTL-5g (60 mg/kg) followed by cisplatin (5 mg/kg) 30 min later, day 1 only
Cisplatin was dissolved in saline. UTL-5g was prepared in DMSO/Cremophor/propylene glycol/saline as described in previous section. All injections were ip and the injection volume was 0.25 mL. Three days before treatment (Day −2), human colon cancer cells (HCT-15) were injected subcutaneously and bilaterally (1×10^6 cells per site per mouse) in each SCID mouse in all groups and tumor sizes were measured by a caliper every 2-3 days and the animals were sacrificed when tumor reached 1,200 mm^3.
The % T/C value is used here as the end-point. […]

Series [3] relates to mice. To be noted: cited from earlier work.

Turning to `Cc1cc(C(=O)Nc2ccc(Cl)cc2Cl)no1` [UTL-5g], in series [1] (UTL-5g 60 mg/kg followed 30 min later by cisplatin 2.5 mg/kg or by saline), the platelet count result was “significantly increased platelet count”. Moreover, the “WBC, protective effect” value in series [1] (UTL-5g 60 mg/kg followed by cisplatin 2.5 mg/kg or saline) is “no significant protective effect”. Also, in series [1] (UTL-5g alone 60 mg/kg followed by saline, mice not treated by cisplatin), the “platelet production, UTL-5g by itself” value is “stimulated the production of platelets; also recorded: increased platelet counts”. In series [2] (UTL-5g 60 mg/kg 30 min before cisplatin 2.5 mg/kg, daily ×5 (Gp 3 vs Gp 2)), the “effect on efficacy of cisplatin” value was “increased the efficacy of cisplatin; also recorded: did not have tumor-protective effect and actually increased the efficacy of cisplatin”. For the same compound, in series [2] (UTL-5g 60 mg/kg 30 min before cisplatin 5 mg/kg, single dose (Gp 5 vs Gp 4)), the “enhancement of efficacy of cisplatin” value is listed as “not observed”. In addition, the “LD50 (acute toxicity)” value in series [3] is listed as above 200 mg/kg.
